Results on six compounds are retold here after patent publication US10358439B2, “DNA binding agents with a minor groove binding tail” (Board of Regents, The University of Texas System, priority 2015, dated 2019).

Usually IC50 stands for the point on the concentration scale where inhibition reaches its midpoint. In general, clearance refers to a measure of how efficiently the substance is removed, as volume per time.

The test system of one series is Colo357-FG. Briefly: in vitro antitumor activity, Colo357-FG. It counts as cell-based. The following applies: Colo357-FG cells.
The next series concerns U87. As to the kind of experiment: in vitro antitumor activity, U87. The following applies: U87 (U87-MG brain tumor) cells. The series is classed as cell-based.
Series [1] can be described thus: 5-mice pilot single-dose pharmacokinetic study, plasma and brain. The following applies: mouse, iv, 5 mg/kg, one hour following a single ~5 mg/kg intravenous dose. The series is classed as in vivo. As to the method:
WP1244 has a relatively high molecular weight (MW) (981.3) having a polyamide moiety attached to the amino sugar. A previous 5-mice pilot study performed with WP1244 confirmed the presence of WP1244 in murine brain tissue, and mean normalized concentrations in the plasma and brain were 283+/−128 ng/mL (range 159-487 ng/mL) and 122+/−67.6 ng/g (range 43-203 ng/g), respectively, one hour following a single ˜5 mg/kg intravenous dose. This pilot single-dose pharmacokinetic study was followed by a complete single-dose pharmacokinetic/biodistribution study which was designed to better elucidate the plasma time-course and tissue biodistribution, particularly in brain tissue, of WP1244. This study involve the use of 55 animals and a dose of 10 mg/kg. The experiment was conducted over a 24 h interval and the methods and results are outlined below.

Series [2] in a line: in vitro IC50, cells not stated. The series is classed as cell-based. The following applies: cell lines not stated.
Series [3] can be described thus: Mouse Plasma PK and Brain Distribution Study following Single IV Dose. It counts as in vivo, male CD1 mice. On the set-up: Mean peak plasma concentration / area-under-the-curve: unit not given here. The following applies: mice, 10 mg/kg IV; for Kp / Vd: iv, 10 mg/kg. The protocol:
(§1) Mouse Plasma PK and Brain Distribution Study following Single IV Dose—WP1244 was administered intravenously by rapid IV push to 55 male CD1 mice (Charles River Lab, Wilmington, Mass.) at a dose of 10 mg/kg. Each mouse (mean weight 22.0 g, range 20.7-26.6 g) was given a volume of 0.1 mL of a 2.2 mg/mL WP1244 solution formulated in DMSO:water (50:50, v/v). Five animals were assigned to one of 11 groups segregated by time, spanning the length of the 24-hour study period. One cohort of animals was sacrificed at each of the following time points and mouse plasma and tissues of interest, were harvested for analysis. The time points were as follows: 5, 15, 30, 45 minutes, 1, 2, 4, 6, 8, 12, and 24 hours following administration by intravenous bolus. Samples (plasma and tissues) were frozen and stored at −80° C. until subsequent analysis by LC/MS/MS.
Sample preparation and drug isolation (extraction) from plasma utilized the same fundamental approach used in pharmacokinetic and biodistribution studies of other anthracyclines previously conducted by the inventors. Briefly, WP1244 was extracted from a volume (0.1 mL) of mouse plasma using a solid-phase extraction method. Liquid-liquid extraction by a chloroform: 2-propanol (80:20, v/v) mixture was utilized to isolate the analyte from mouse brain tissue. An 8-point plasma extracted calibration curve was created to span a dynamic concentration range of WP1244 of 1-1000 ng/mL (1, 2.5, 10, 25, 50, 100, 500, and 1000 ng/mL) for the quantitative measurement of WP1244 extracted from mouse plasma, while a brain tissue derived calibration curve was utilized for determination of brain tissue concentrations of drug over a range of 10-1000 ng/g tissue. Samples exceeding the dynamic range of the calibration curve were re-analyzed following dilution in extraction buffers.
Quantitative sample analysis was performed by chromatographic separation and identification/quantification using mass spectrometry (LC/MS/MS); the specific instrumentation used was an Agilent HP1100 Series liquid chromatograph in tandem with a Micromass Quattro Micro (Micro2) mass spectrometer. A Phenomenex® Luna C5, 4.6×50 mm, 3.5 μm) analytical column was used for chromatographic separation and peak resolution. As mentioned before, sample analysis utilized the same fundamental validated methods developed previously for the quantitative analysis of other anthracyclines studied by the inventors.

A short description of series [4]: acute clinically observable toxicity after IV bolus. The series is classed as in vivo. The following applies: mice, 10 mg/kg intravenous bolus, up to 24 hours following dosing. The protocol: as §1
Another series has as its system D54. As to the kind of experiment: in vitro antitumor activity, D54. The series is classed as cell-based. The following applies: D54 cells.
The next series deals with H441. Briefly: in vitro antitumor activity, H441. The following applies: H441 cells. The series is classed as cell-based.

Molecules are shown by their SMILES. Like-named read-outs stand apart in the source and are kept apart here. Some results are limits rather than exact numbers.

Consider `COc1cccc2c1C(=O)c1c(O)c3c(c(O)c1C2=O)C[C@@](O)(C(C)=O)C[C@H]3OC1CC(NC(=O)c2cc(NC(=O)c3cc(NC(=O)c4cccn4C)cn3C)cn2C)C(O)C(C)O1` (stereo in doubt) [WP1277], for which the concentration for half-maximal inhibition (IC50) stood at 4240 nM in the series on Colo357-FG (COLO 357/FG) and 105 nM in the series with U87 (Homo sapiens, U-87 MG).
On the same counts, the results for `COc1cccc2c1C(=O)c1c(O)c3c(c(O)c1C2=O)C[C@](O)(C(C)=O)C[C@H]3OC1CC(NCc2ccc(NC(=O)c3cc(NC(=O)c4cc(NC(=O)c5cc(NC=O)cn5C)cn4C)cn3C)cc2)C(O)C(C)O1` (stereo in doubt) [WP1249] are 51.2 nM and 7.7 nM.
As to `COc1cccc2c1C(=O)c1c(O)c3c(c(O)c1C2=O)C[C@](O)(C(C)=O)C[C@H]3OC1CC(NCc2ccc(NC(=O)c3cc(NC(=O)c4cc(NC(=O)c5ccccn5)cn4C)cn3C)cc2)C(O)C(C)O1` (stereo partly shown) [WP1244], the concentration at 1 h is 122 ng/g in series [1] (brain, read-out: mean normalized concentration in brain); 43 to 203 ng/g in series [1] (brain, read-out: range of normalized concentration in brain); 283 ng/mL in series [1] (plasma, read-out: mean normalized concentration in plasma); 159 to 487 ng/mL in series [1] (plasma, read-out: range of normalized concentration in plasma). In addition, the 50% inhibitory concentration (IC50) in the series on Colo357-FG (COLO 357/FG) is 3.1 nM; in the series with U87 (Homo sapiens, U-87 MG), 0.2 nM; in the series on D54 (Homo sapiens) it was 1.08 nM; in the series on H441 (Homo sapiens, NCI-H441), 0.91 nM. For the same compound, the “in vitro IC50 values” in series [2] is “subnanomolar range”. Besides, the Kp was 3 to 4 in series [3] (male, CD1, mouse, brain, 0 to 8 hour interval, read-out: fold higher concentration in brain tissue than plasma) and above 1 in series [3] (male, CD1, mouse, brain, over the measured interval (except 5 min timepoint), read-out: brain tissue to plasma concentration ratio). For the same compound, the concentration at 24 h in series [3] (male, CD1, mouse, brain, at 24 hours, read-out: nadir brain tissue concentration) is above 100 ng/g; in series [3] (male, CD1, mouse, plasma, 24 hours after IV bolus injection, read-out: mean nadir plasma concentration), 21.5 ng/mL. Moreover, the Vd in series [3] (male, CD1, mouse, plasma, 2-compartment model, read-out: volume of distribution Vc) amounted to 0.0097 L/kg; in series [3] (male, CD1, mouse, plasma, 2-compartment model, read-out: volume of distribution Vp), 0.326 L/kg; in series [3] (male, CD1, mouse, plasma, 2-compartment model, read-out: volume of distribution Vss) it was 0.336 L/kg. Moreover, the clearance in series [3] (male, CD1, mouse, plasma, 2-compartment model, read-out: Drug clearance (converted)) is 0.683 mL/min/kg. In series [3] (at 15 minutes post dose), the “mean peak concentration in brain tissue” value came out at 915 ng/g tissue. Moreover, in series [3] (five minutes after drug administration), the “Mean peak plasma concentration” value is recorded as 3.7. Further, the area-under-the-curve in series [3] (plasma) came out at 250. Also, the “time of peak concentration in brain tissue” value in series [3] (post dose) amounted to 15 min. In addition, in series [4], the “acute clinically observable toxicity” value was “no acute clinically observable toxicity”.
As to `COc1cccc2c1C(=O)c1c(O)c3c(c(O)c1C2=O)C[C@](O)(C(C)=O)C[C@H]3OC1CC(NCc2ccc(NC(=O)c3cc(NC(=O)c4cc(NC(=O)c5cccn5C)cn4C)cn3C)cc2)C(O)C(C)O1` (stereo in doubt) [WP1243], the 50% inhibitory concentration (IC50) in the series on Colo357-FG (COLO 357/FG) is 76.2 nM; in the series on U87 (Homo sapiens, U-87 MG), 8.3 nM.
On to `COc1cccc2c1C(=O)c1c(O)c3c(c(O)c1C2=O)C[C@@](O)(C(C)=O)C[C@@H]3O[C@H]1C[C@H](N)[C@H](O)[C@H](C)O1` [DNR, reference compound], for which the IC50 in the series on Colo357-FG came out at 46.4 nM; with U87, 143 nM; in the series with D54 it was 231 nM; in the series on H441, 15.9 nM.
As for `COc1cccc2c1C(=O)c1c(O)c3c(c(O)c1C2=O)C[C@](O)(C(C)=O)C[C@H]3OC1CC(NCc2ccc(NC(=O)c3cc(NC(=O)c4cc(NC(=O)c5cc([N+](=O)[O-])cn5C)cn4C)cn3C)cc2)C(O)C(C)O1` (stereo in doubt) [WP1276], the concentration for half-maximal inhibition (IC50) was determined as 443 nM with Colo357-FG (COLO 357/FG) and 27.8 nM in the series on U87 (Homo sapiens, U-87 MG).
